# Square brackets hold non-standard residues; d marks the D form. Peptide text beside a SMILES is read from it. * marks the point of attachment. X1 = CC(C)(O/N=C(\C(=O)N[C@@H]1C(=O)N2C(C(=O)[O-])=C(C[n+]3ccccc3)CS[C@H]12)c1csc(N)n1)C(=O)NCCCCCCN1C(=O)CC(*)C1=O; X2 = C[C@H]1[C@H](NC(=O)/C(=N\OC(C)(C)C(=O)NCCCCCCN2C(=O)CC(*)C2=O)c2csc(N)n2)C(=O)N1S(=O)(=O)O
# Tested on: B. subtilis DSM 10
# Assay: microbe, parasite or virus in culture
# Assay type: cell-based
# Conditions: B. subtilis DSM 10; median (n = 3)
# Method: The minimum inhibitory concentration (MIC) of the β‐lactam–peptide conjugates was determined by broth microdilution as previously described.^[ [17] ^] Briefly, in cation‐adjusted MHB II medium, a twofold serial dilution of the compounds was prepared in 96‐well round‐bottom polystyrene or polypropylene microtiter plates with each well containing 50 µL. The plates were inoculated with 50 µL bacterial suspension and the final inoculum, in a total volume of 100 µL, contained 5 × 10^5 CFU mL^−1. The microplates were incubated for 20 h at 37 ± 1 °C. The lowest concentration preventing visible bacterial growth was considered the MIC value. For susceptibility testing of combinations of β‐lactamase‐inhibitors with either a β‐lactam antibiotic or a β‐lactam–peptide conjugate, fixed concentrations of the inhibitors according to the EUCAST (European Committee on Antimicrobial Susceptibility Testing) guidelines (clavulanic acid = 2 mg L^−1, avibactam = 4 mg L^−1) were used.
row,SMILES,MIC
1,C[C@H]1[C@H](NC(=O)/C(=N\OC(C)(C)C(=O)NCCCCCCN2C(=O)CC(SC[C@H](NC(=O)[C@H](CCCNC(=N)N)NC(=O)[C@H](CCCNC(=N)N)NC(=O)[C@H](CCCNC(=N)N)NC(=O)[C@H](CCCNC(=N)N)NC(=O)[C@H](CCCNC(=N)N)NC(=O)[C@H](CCCNC(=N)N)NC(=O)[C@H](N)Cc3ccc(O)cc3)C(N)=O)C2=O)c2csc(N)n2)C(=O)N1S(=O)(=O)O (some centres unmarked) [AZT-yR6] (H-[dY]RRRRRRC(X2)-NH2; N-terminus assumed),1 µg/mL

# Same assay, conditions: DSM 10, 20 h
row,SMILES,MIC
1,CC1(C)S[C@@H]2[C@H](NC(=O)[C@H](NC(=O)C3CCC(CN4C(=O)CC(SC[C@H](NC(=O)[C@H](CCCNC(=N)N)NC(=O)[C@H](CCCNC(=N)N)NC(=O)[C@H](CCCNC(=N)N)NC(=O)[C@H](CCCNC(=N)N)NC(=O)[C@H](CCCNC(=N)N)NC(=O)[C@@H](N)CCCNC(=N)N)C(N)=O)C4=O)CC3)c3ccc(O)cc3)C(=O)N2[C@H]1C(=O)O (some centres unmarked) [AMO-R6],0.06 µg/mL
2,C[C@H]1[C@H](NC(=O)/C(=N\OC(C)(C)C(=O)NCCCCCCN2C(=O)CC(SC[C@H](NC(=O)[C@H](CCCNC(=N)N)NC(=O)CNC(=O)[C@H](CCCNC(=N)N)NC(=O)CNC(=O)[C@H](CCCNC(=N)N)NC(=O)CN)C(N)=O)C2=O)c2csc(N)n2)C(=O)N1S(=O)(=O)O (some centres unmarked) [AZT-(GR)3] (H-GRGRGRC(X2)-NH2; N-terminus assumed),1 µg/mL
3,C[C@H]1[C@H](NC(=O)/C(=N\OC(C)(C)C(=O)NCCCCCCN2C(=O)CC(SC[C@H](NC(=O)[C@H](CCCNC(=N)N)NC(=O)[C@H](CCCCN)NC(=O)[C@H](CCCNC(=N)N)NC(=O)[C@H](CCCCN)NC(=O)[C@H](CCCNC(=N)N)NC(=O)[C@@H](N)CCCCN)C(N)=O)C2=O)c2csc(N)n2)C(=O)N1S(=O)(=O)O (some centres unmarked) [AZT-(KR)3] (H-KRKRKRC(X2)-NH2; N-terminus assumed),0.06 µg/mL
4,C[C@H]1[C@H](NC(=O)/C(=N\OC(C)(C)C(=O)NCCCCCCN2C(=O)CC(SC[C@H](NC(=O)[C@H](CCC(=O)O)NC(=O)[C@H](CCC(=O)O)NC(=O)[C@H](CCC(=O)O)NC(=O)[C@H](CCC(=O)O)NC(=O)[C@H](CCC(=O)O)NC(=O)[C@@H](N)CCC(=O)O)C(N)=O)C2=O)c2csc(N)n2)C(=O)N1S(=O)(=O)O (some centres unmarked) [AZT-E6],> 64 µg/mL
5,C[C@H]1[C@H](NC(=O)/C(=N\OC(C)(C)C(=O)NCCCCCCN2C(=O)CC(SC[C@H](NC(=O)CNC(=O)CNC(=O)CNC(=O)CNC(=O)CNC(=O)CN)C(N)=O)C2=O)c2csc(N)n2)C(=O)N1S(=O)(=O)O (some centres unmarked) [AZT-G6] (H-GGGGGGC(X2)-NH2; N-terminus assumed),64 µg/mL
6,C[C@H]1[C@H](NC(=O)/C(=N\OC(C)(C)C(=O)NCCCCCCN2C(=O)CC(SC[C@H](NC(=O)[C@@H](N)CCCCN)C(N)=O)C2=O)c2csc(N)n2)C(=O)N1S(=O)(=O)O (some centres unmarked) [AZT-K1],16 µg/mL
7,C[C@H]1[C@H](NC(=O)/C(=N\OC(C)(C)C(=O)NCCCCCCN2C(=O)CC(SC[C@H](NC(=O)[C@H](CCCCN)NC(=O)[C@H](CCCCN)NC(=O)[C@@H](N)CCCCN)C(N)=O)C2=O)c2csc(N)n2)C(=O)N1S(=O)(=O)O (some centres unmarked) [AZT-K3],8 µg/mL
8,C[C@H]1[C@H](NC(=O)/C(=N\OC(C)(C)C(=O)NCCCCCCN2C(=O)CC(SC[C@H](NC(=O)[C@H](CCCCN)NC(=O)[C@H](CCCCN)NC(=O)[C@H](CCCCN)NC(=O)[C@H](CCCCN)NC(=O)[C@H](CCCCN)NC(=O)[C@@H](N)CCCCN)C(N)=O)C2=O)c2csc(N)n2)C(=O)N1S(=O)(=O)O (some centres unmarked) [AZT-K6] (H-KKKKKKC(X2)-NH2; N-terminus assumed),0.25 µg/mL
9,C[C@H]1[C@H](NC(=O)/C(=N\OC(C)(C)C(=O)NCCCCCCN2C(=O)CC(SC[C@H](NC(=O)[C@H](CCCCN)NC(=O)[C@H](CCCCN)NC(=O)[C@H](CCCCN)NC(=O)[C@H](CCCCN)NC(=O)[C@H](CCCCN)NC(=O)[C@H](CCCCN)NC(=O)[C@H](CCCCN)NC(=O)[C@H](CCCCN)NC(=O)[C@@H](N)CCCCN)C(N)=O)C2=O)c2csc(N)n2)C(=O)N1S(=O)(=O)O (some centres unmarked) [AZT-K9] (H-KKKKKKKKKC(X2)-NH2; N-terminus assumed),0.1 µg/mL
10,C[C@H]1[C@H](NC(=O)/C(=N\OC(C)(C)C(=O)NCCCCCCN2C(=O)CC(SC[C@H](NC(=O)[C@H](CCCCN)NC(=O)[C@H](CCCCN)NC(=O)[C@H](CCCCN)NC(=O)[C@H](CCCCN)NC(=O)[C@H](CCCCN)NC(=O)[C@H](CCCCN)NC(=O)[C@H](CCCCN)NC(=O)[C@H](CCCCN)NC(=O)[C@H](CCCCN)NC(=O)[C@H](CCCCN)NC(=O)[C@H](CCCCN)NC(=O)[C@@H](N)CCCCN)C(N)=O)C2=O)c2csc(N)n2)C(=O)N1S(=O)(=O)O (some centres unmarked) [AZT-K12] (H-KKKKKKKKKKKKC(X2)-NH2; N-terminus assumed),0.06 µg/mL
11,C[C@H]1[C@H](NC(=O)/C(=N\OC(C)(C)C(=O)NCCCCCCN2C(=O)CC(SC[C@H](NC(=O)[C@@H](N)CCCNC(=N)N)C(N)=O)C2=O)c2csc(N)n2)C(=O)N1S(=O)(=O)O (some centres unmarked) [AZT-R1],16 µg/mL
12,C[C@H]1[C@H](NC(=O)/C(=N\OC(C)(C)C(=O)NCCCCCCN2C(=O)CC(SC[C@H](NC(=O)[C@H](CCCCN)NC(=O)[C@H](CCCCN)NC(=O)[C@H](CCCCN)NC(=O)[C@H](CCCNC(=N)N)NC(=O)[C@H](CCCNC(=N)N)NC(=O)[C@@H](N)CCCNC(=N)N)C(N)=O)C2=O)c2csc(N)n2)C(=O)N1S(=O)(=O)O (some centres unmarked) [AZT-R3K3] (H-RRRKKKC(X2)-NH2; N-terminus assumed),0.06 µg/mL
13,C[C@H]1[C@H](NC(=O)/C(=N\OC(C)(C)C(=O)NCCCCCCN2C(=O)CC(SC[C@H](NC(=O)[C@H](CCCNC(=N)N)NC(=O)[C@H](CCCNC(=N)N)NC(=O)[C@@H](N)CCCNC(=N)N)C(N)=O)C2=O)c2csc(N)n2)C(=O)N1S(=O)(=O)O (some centres unmarked) [AZT-R3],1 µg/mL
14,C[C@H]1[C@H](NC(=O)/C(=N\OC(C)(C)C(=O)NCCCCCCN2C(=O)CC(SC[C@H](NC(=O)[C@H](CCCNC(=N)N)NC(=O)[C@H](CCCNC(=N)N)NC(=O)[C@H](CCCNC(=N)N)NC(=O)[C@H](CCCNC(=N)N)NC(=O)[C@H](CCCNC(=N)N)NC(=O)[C@H](CCCNC(=N)N)NC(=O)[C@H](CCCNC(=N)N)NC(=O)[C@H](CCCNC(=N)N)NC(=O)[C@@H](N)CCCNC(=N)N)C(N)=O)C2=O)c2csc(N)n2)C(=O)N1S(=O)(=O)O (some centres unmarked) [AZT-R9],0.5 µg/mL
15,C[C@H]1[C@H](NC(=O)/C(=N\OC(C)(C)C(=O)NCCCCCCN2C(=O)CC(SC[C@H](NC(=O)[C@H](CCCNC(=N)N)NC(=O)[C@H](CCCNC(=N)N)NC(=O)[C@H](CCCNC(=N)N)NC(=O)[C@H](CCCNC(=N)N)NC(=O)[C@H](CCCNC(=N)N)NC(=O)[C@H](CCCNC(=N)N)NC(=O)[C@H](CCCNC(=N)N)NC(=O)[C@H](CCCNC(=N)N)NC(=O)[C@H](CCCNC(=N)N)NC(=O)[C@H](CCCNC(=N)N)NC(=O)[C@H](CCCNC(=N)N)NC(=O)[C@@H](N)CCCNC(=N)N)C(N)=O)C2=O)c2csc(N)n2)C(=O)N1S(=O)(=O)O (some centres unmarked) [AZT-R12],1 µg/mL
16,CC(C)(O/N=C(\C(=O)N[C@@H]1C(=O)N2C(C(=O)[O-])=C(C[n+]3ccccc3)CS[C@H]12)c1csc(N)n1)C(=O)NCCCCCCN1C(=O)CC(SC[C@H](NC(=O)[C@H](CCCNC(=N)N)NC(=O)CNC(=O)[C@H](CCCNC(=N)N)NC(=O)CNC(=O)[C@H](CCCNC(=N)N)NC(=O)CN)C(N)=O)C1=O (some centres unmarked) [CTZ-(GR)3] (H-GRGRGRC(X1)-NH2; N-terminus assumed),0.06 µg/mL
17,CC(C)(O/N=C(\C(=O)N[C@@H]1C(=O)N2C(C(=O)[O-])=C(C[n+]3ccccc3)CS[C@H]12)c1csc(N)n1)C(=O)NCCCCCCN1C(=O)CC(SC[C@H](NC(=O)[C@H](CCCNC(=N)N)NC(=O)[C@H](CCCCN)NC(=O)[C@H](CCCNC(=N)N)NC(=O)[C@H](CCCCN)NC(=O)[C@H](CCCNC(=N)N)NC(=O)[C@@H](N)CCCCN)C(N)=O)C1=O (some centres unmarked) [CTZ-(KR)3] (H-KRKRKRC(X1)-NH2; N-terminus assumed),0.008 µg/mL
18,CC(C)(O/N=C(\C(=O)N[C@@H]1C(=O)N2C(C(=O)[O-])=C(C[n+]3ccccc3)CS[C@H]12)c1csc(N)n1)C(=O)NCCCCCCN1C(=O)CC(SC[C@H](NC(=O)[C@H](CCC(=O)O)NC(=O)[C@H](CCC(=O)O)NC(=O)[C@H](CCC(=O)O)NC(=O)[C@H](CCC(=O)O)NC(=O)[C@H](CCC(=O)O)NC(=O)[C@@H](N)CCC(=O)O)C(N)=O)C1=O (some centres unmarked) [CTZ-E6],> 64 µg/mL
19,CC(C)(O/N=C(\C(=O)N[C@@H]1C(=O)N2C(C(=O)[O-])=C(C[n+]3ccccc3)CS[C@H]12)c1csc(N)n1)C(=O)NCCCCCCN1C(=O)CC(SC[C@H](NC(=O)CNC(=O)CNC(=O)CNC(=O)CNC(=O)CNC(=O)CN)C(N)=O)C1=O (some centres unmarked) [CTZ-G6] (H-GGGGGGC(X1)-NH2; N-terminus assumed),8 µg/mL
20,CC(C)(O/N=C(\C(=O)N[C@@H]1C(=O)N2C(C(=O)[O-])=C(C[n+]3ccccc3)CS[C@H]12)c1csc(N)n1)C(=O)NCCCCCCN1C(=O)CC(SC[C@H](NC(=O)[C@@H](N)CCCCN)C(N)=O)C1=O (some centres unmarked) [CTZ-K1],1 µg/mL
21,CC(C)(O/N=C(\C(=O)N[C@@H]1C(=O)N2C(C(=O)[O-])=C(C[n+]3ccccc3)CS[C@H]12)c1csc(N)n1)C(=O)NCCCCCCN1C(=O)CC(SC[C@H](NC(=O)[C@H](CCCCN)NC(=O)[C@H](CCCCN)NC(=O)[C@H](CCCCN)NC(=O)[C@H](CCCCN)NC(=O)[C@H](CCCCN)NC(=O)[C@H](CCCCN)NC(=O)[C@H](CCCCN)NC(=O)[C@H](CCCCN)NC(=O)[C@H](CCCCN)NC(=O)[C@H](CCCCN)NC(=O)[C@H](CCCCN)NC(=O)[C@@H](N)CCCCN)C(N)=O)C1=O (some centres unmarked) [CTZ-K12] (H-KKKKKKKKKKKKC(X1)-NH2),0.02 µg/mL
22,CC(C)(O/N=C(\C(=O)N[C@@H]1C(=O)N2C(C(=O)[O-])=C(C[n+]3ccccc3)CS[C@H]12)c1csc(N)n1)C(=O)NCCCCCCN1C(=O)CC(SC[C@H](NC(=O)[C@@H](N)CCCNC(=N)N)C(N)=O)C1=O (some centres unmarked) [CTZ-R1],1 µg/mL
